How the values were obtained:
HL60 = assay: MTS cytotoxicity on MDR tumor cells, HL60; format: cell-based; conditions: Homo sapiens, HL-60, Vincristine (VCR) sensitive, 72 hr incubation
[1] = test system: human colon carcinoma HT-29; assay: MTS cytotoxicity assay, HT-29; format: cell-based; conditions: Homo sapiens, HT-29, 48 h incubation
Protocol: (§1) In order to obtain information about the growth-inhibiting action of hydrazones reported in the present invention on tumor cells, growth inhibition was assessed for the following human tumor cell lines: human myelogenous leukemia K562, human cervical adenocarcinoma HeLa, human colon adenocarcinoma Caco-2, human colon carcinoma HT-29, human colon carcinoma HCT-15, and human breast carcinoma MCF-7.
(§2) The K562, HeLa, HT-29, HCT-15, Caco-2, and MCF-7 cell lines were obtained from the American type Culture Collection (ATCC, Manassas, Va.). K562 cells were maintained in RPMI 1640 medium (Gibco/Life Technologies, Gaithersburg, Md.) containing 10% heat-inactivated fetal bovine serum (FBS) (Atlanta Biologicals, Atlanta, Ga.) and 10000 U/L penicillin and 50 mg/L streptomycin. HeLa, HT-29, HCT-15, Caco-2 and MCF-7 cells were maintained in MEM with Earl's balanced salts, 10% FBS, penicillin, and streptomycin as above. Logarithmically growing HT-29, Caco-2, and MCF-7 cells were incubated with 0.05% trypsin containing 1 mM EDTA at 37° C. for about 5 min until cells were nonadherent and formed a single cell suspension. Trypsin activity was neutralized by adding 20-fold excess of the serum-containing medium. Cells were cultured at 37° C. in an atmosphere of air and 5% CO2.
(§3) Cytotoxicity assays were conducted by tetrazolium reduction of 3-(4,5-dimethylthiazol-2-yl)-5-(3-carboxymethoxyphenyl)-2-(4-sulfophenyl)-2H-tetrazolium (MTS) with N-methylphenazonium methyl sulfate (PMS) (CellTiter Assay, Promega, Madison, Wis.). Logarithmically growing cells were plated in 0.1 mL aliquots in 96-well microtiter plates. Cells were plated at an initial density of about 5000 cells/mL and allowed to acclimatize for 24 h. Cell suspensions were treated with various dilutions of compounds in triplicate, mixed well, and allowed to incubate for 48 h at 37° C. in an atmosphere of air and 5% CO2. To the cell suspension was added 20 μL of tetrazolium reagent, the mixture was incubated for 2 h at 37° C. in an atmosphere of air and 5% CO2, and absorbance at 490 nm was read by microplate reader. Control plates with serial dilutions of cell types were counted as a control for the assay. In all cases, controls indicated a linear response versus cell number, R^2≧0.99.

[2] = test system: human myelogenous leukemia K562; assay: MTS cytotoxicity assay, K562; format: cell-based; conditions: Homo sapiens, K562, 48 h incubation
Protocol: as §1, §2, §3

[3] = test system: human colon adenocarcinoma Caco-2; assay: MTS cytotoxicity assay, Caco-2; format: cell-based; conditions: Homo sapiens, Caco-2, 48 h incubation
Protocol: as §1, §2, §3

leukemia cell lines = assay: NCI 60 human tumor cell line screen, leukemia; format: cell-based; conditions: Homo sapiens, arithmetic mean of two to nine cancer cell lines, read-out: Inhibitory concentration GI50, leukemia
Description: (§4) Selected compounds were submitted for testing in the organ-specific panel of human tumor cell lines at the National Cancer Institute, Bethesda, Md. This screen utilized 60 human tumor cell lines, representing leukemia, melanoma, and cancers of the lung, colon, brain, ovary, kidney, prostate, and breast (Boyd, M. R., “Status of the NCl preclinical antitumor drug discovery screen”. In Principles and practice of oncology updates; De Vita, V. T., Jr. Hellman, S., Rosenberg, S. A., Eds.; Lippincott: Philadelphia, Pa., 1989; Vol. 3, pp 1-12).
(§5) The MG MID value is the average of the GI50 values for all the cell lines tested for drug concentrations in the range of 10^−4-10^−8 M (See website domain: dtp.nci.nih.gov/dtp).

[4] = test system: human cervical adenocarcinoma HeLa; assay: MTS cytotoxicity assay, HeLa; format: cell-based; conditions: Homo sapiens, HeLa, 48 h incubation
Protocol: as §1, §2, §3

[5] = test system: human breast carcinoma MCF-7; assay: MTS cytotoxicity assay, MCF-7; format: cell-based; conditions: Homo sapiens, MCF7, 48 h incubation
Protocol: as §1, §2, §3

melanoma cell lines = assay: NCI 60 human tumor cell line screen, melanoma; format: cell-based; conditions: Homo sapiens, arithmetic mean of two to nine cancer cell lines, read-out: Inhibitory concentration GI50, melanoma
Description: as §4, §5

colon cancer cell lines = assay: NCI 60 human tumor cell line screen, colon; format: cell-based; conditions: Homo sapiens, arithmetic mean of two to nine cancer cell lines, read-out: Inhibitory concentration GI50, colon
Description: as §4, §5

[6] = test system: human colon carcinoma HCT-15; assay: MTS cytotoxicity assay, HCT-15; format: cell-based; conditions: Homo sapiens, HCT-15, 48 h incubation
Protocol: as §1, §2, §3

[7] = test system: ovarian cancer cell lines; assay: NCI 60 human tumor cell line screen, ovarian; format: cell-based; conditions: Homo sapiens, arithmetic mean of two to nine cancer cell lines, read-out: Inhibitory concentration GI50, ovarian
Description: as §4, §5

HL60-VCR [8] = assay: MTS cytotoxicity on MDR tumor cells, HL60-VCR; format: cell-based; conditions: HL60/VCR, Vincristine (VCR) resistant, 72 hr incubation
CNS cancer cell lines = assay: NCI 60 human tumor cell line screen, CNS; format: cell-based; conditions: Homo sapiens, arithmetic mean of two to nine cancer cell lines, read-out: Inhibitory concentration GI50, CNS
Description: as §4, §5

[9] = test system: prostate cancer cell lines; assay: NCI 60 human tumor cell line screen, prostate; format: cell-based; conditions: Homo sapiens, arithmetic mean of two to nine cancer cell lines, read-out: Inhibitory concentration GI50, prostrate
Description: as §4, §5

breast cancer cell lines = assay: NCI 60 human tumor cell line screen, breast; format: cell-based; conditions: Homo sapiens, arithmetic mean of two to nine cancer cell lines, read-out: Inhibitory concentration GI50, breast
Description: as §4, §5

[10] = test system: 60 human tumor cell lines; assay: NCI 60 human tumor cell line screen, all cell lines; format: cell-based
Description: as §4, §5

[11] = test system: nonsmall cell lung cancer cell lines; assay: NCI 60 human tumor cell line screen, NSCL; format: cell-based; conditions: Homo sapiens, arithmetic mean of two to nine cancer cell lines, read-out: Inhibitory concentration GI50, NSCL
Description: as §4, §5

renal cancer cell lines = assay: NCI 60 human tumor cell line screen, renal; format: cell-based; conditions: Homo sapiens, arithmetic mean of two to nine cancer cell lines, read-out: Inhibitory concentration GI50, renal
Description: as §4, §5

KB-A1000 = conditions: MDR cell line characterisation; cited from earlier work
HL60-VCR [12] = conditions: MDR cell line characterisation; cited from earlier work

## CC(C)=NNc1ncnc2c1ncn2C1O[C@H](CO)[C@@H](O)[C@H]1O (stereo partly drawn) [I-12, (2R,3S,4R)-2-(hydroxymethyl)-5-(6-(2-(propan-2-ylidene)hydrazinyl)-9H-purin-9-yl)tetrahydrofuran-3,4-diol]
HL60
  GI50: 1800 nM
[1]
  GI50: 1600 nM
[2]
  GI50: 300 nM
[3]
  GI50: 200 nM
Leukemia cell lines
  GI50: 1270 nM
[4]
  GI50: 600 nM
[5]
  GI50: 200 nM
Melanoma cell lines
  GI50: 1900 nM
Colon cancer cell lines
  GI50: 497 nM
[6]
  GI50: 2800 nM
[7]
  GI50: 447 nM
HL60-VCR [8]
  GI50: 2200 nM
CNS cancer cell lines
  GI50: 1200 nM
[9]
  GI50: 363 nM
Breast cancer cell lines
  GI50: 751 nM
[10]; Homo sapiens, average of the GI50 values for all the cell lines tested, drug concentrations 10^−4-10^−8 M, read-out: MG-MID (mean graph midpoint)
  mean GI50 (MG-MID): 847 nM
[10]; NCI screen, by cancer type
  cells found to be the most sensitive: prostate, ovarian, colon, and renal cancer cell lines
[11]
  GI50: 786 nM
Renal cancer cell lines
  GI50: 516 nM

## COc1cccc2c1C(=O)c1c(O)c3c(c(O)c1C2=O)C[C@@](O)(C(=O)CO)C[C@@H]3O[C@H]1C[C@H](N)[C@H](O)[C@H](C)O1 [doxorubicine]
KB-A1000
  resistance expressed by KB-A1000: 97 fold
HL60-VCR [12]
  resistance expressed by HL60-VCR: 8 fold

## CC[C@]1(O)C[C@@H]2CN(CCc3c([nH]c4ccccc34)[C@@](C(=O)OC)(c3cc4c(cc3OC)N(C)[C@H]3[C@@](O)(C(=O)OC)[C@H](OC(C)=O)[C@]5(CC)C=CCN6CC[C@]43[C@@H]65)C2)C1 [vinblastine]
KB-A1000
  resistance expressed by KB-A1000: 43 fold
HL60-VCR [12]
  resistance expressed by HL60-VCR: 620 fold

— patent US9133230B2, “Hydrazone derivatives having potent antitumor activity toward multi-drug resistant tumor cells” (THE UNITED STATES OF AMERICA AS REPRESENTED BY THE …, priority 2011, dated 2015)
